From patent US20230381139A1, “METHODS OF TREATING AND/OR PREVENTING ALZHEIMER’S DISEASE WITH R-CARVEDILOL” (priority 2020, published 2023)

Key:
[1] = test system: Kv4.2/KChIP4 channel complex; assay: Whole-cell A-type K+ current recording in Kv4.2/KChIP4 transfected HEK293 cells expressing RyR2 WT; format: cell-based; details: caffeine 2.5 mM, 2 min after application vs baseline
Protocol: Previous studies used whole-cell patch clamp recordings at the soma of CA1 pyramidal cells to measure the whole-cell A-type K^+ current (Chen, 2005; Good et al., 1996; Hall et al., 2015; Scala et al., 2015). To make comparisons to earlier studies, the same approach was employed. Briefly, whole-cell A-type K^+ current (IA) was elicited by depolarizing pulses to +40 mV from a holding potential of −100 mV in the presence of 20 mM tetraethylammonium (TEA) and 100 nM tetrodotoxin (TTX). In steady-state activation experiments, membrane potential was held at −100 mV, and IA was evoked by a 200-ms depolarizing pulse from a first pulse potential of −80 mV to +80 my in 10-mV steps at 10-s intervals, Data were analyzed using the equation GK=IK/(Vm−Vrev), where GK is the membrane K^+ conductance, Vm is the membrane potential, and Vrev is the reversal potential for K^+. To study steady-state inactivation of IA, currents were elicited using 1-s conditioning pre-pulses from −110 mV to 0 mV before a 200-ms test pulse of +50 mV. After normalizing each current amplitude to the maximal current, amplitude obtained from the −110 mV pre-pulse was used as a function of the conditioning pre-pulse potential and fitted with the function IA/IA−max=1/(1+exp((Vm1/2−Vm)/k)), from which, an inactivation curve of IA was obtained, and the VH value (the voltage at which the current amplitude was half-inactivated) was calculated. The somatic whole-cell recordings provide information on the magnitude of somatic A-type K^+ current, an important determinant of somatic excitability.
For HEK293 cell experiments, HEK293 cell lines were maintained as previously described (Jiang et al., 2004) and transiently transfected with cDNAs of Kv4.2 and KChIP4 together with cDNA encoding for GFP to identify cells successfully transfected. 12-16 h before recording, tetracycline was added to culture media to induce the expression of RyR2 WI or RyR2 E4872Q mutant. IA was recorded with the same protocols as described above. Prior to IA recording, the culture medium was replaced with a bath solution (NaCl, 125 mM; KCl, 2.5 mM; HEPES, 10 mM; MgCl2, 1 mM; glucose, 10 mM; TEA, 20 mM; pH 7.4 adjusted with NaOH).

5×FAD+/− mice = assay: Learning and memory tests (Morris water maze, novel object recognition) in 5×FAD+/− mice; format: in vivo, mouse; details: 3.2 mg/kg/day for one month started at 2-3 months of age (before AD symptoms), tested at 3-4 months; vs DMSO
Protocol: (§1) Adult genetically engineered mice, 5×FAD^+/− (Oakley et al., 2006), RyR2-E4872Q^+/− (EQ^+/−) (Chen et al., 2014), 5×FAD^+/−/RyR2-E4872Q^+/− (5×FAD^+/−/EQ^+/−), and wildtype (WT) littermates of both sexes were used. R-carvedilol (R-CV) (at doses of 0.8, 1.6 or 3.2 mg/kg/day), racemic carvedilol (3.2 mg/kg/day), and vehicle control (DMSO) were delivered to 5×FAD^+/− mice in drinking water for one month, starting at different ages before (2-3 months old) or after (3-4 months old) the occurrence of AD pathologies (Oakley et al., 2006). To assess the effects of genetically and pharmacologically limiting RyR2 open time on the prevention and rescue of AD deficits in different stages (early, moderate, and late) of AD progression, animals at different ages (from 2-15 months) were used. As reported (Oakley et al., 2006), there was an age-dependence of AD progression in the 5×FAD^+/− mice. No sex-dependent differences in AD progression in these mice was observed. For 2-photon Ca^2+ imaging experiments, 5×FAD, RyR2 WT, and RyR2 mutant mice were cross-bred with the heterozygous Thy1-GCaMP6f transgenic mice (Chen et al., 2012; Chen et al., 2013) (GP5.17, JAX 025393) to express the GCaMP6f Ca^2+ sensing probe (driven by the Thy1 promotor) in hippocampal neurons in each of the genotypes used.
The learning and memory of mice with all genotypes were evaluated using the Morris water maze (MWM) test, the Barnes maze (BM) test, and/or the novel object recognition (NOR) test. Experiments were carried out blindly. For the MWM test, mice at different ages were trained to localize a hidden escape platform (10×10 cm) in a circular pool (116.84 cm in diameter, 50 cm in depth) (San Diego Instruments, CA) via distal visual cue. The platform was submerged 1-2 cm beneath the surface in water (22-24°C.), which was rendered opaque by addition of milk powder. The localization of the pool in relation to visual cues was maintained constantly during the entire task. The cues were distinct in color and shape. Digital division of the tracking area (pool) into four quadrants was performed by the SMART video tracking system, Smart 3.0 (Panlab Harvard Apparatus; Barcelona Spain). The escape platform was placed in the centre of the south-west quadrant for the entirety of the learning phase (4 training days) and digitally defined as target. Spatial training consisted of 4 days with 5 trials per mouse per day. Mice were released with their heads facing the pool wall at one of four entry locations (north, east, south and west) in a non-repetitive random order. Swimming was automatically video-tracked until the subject found the escape platform and remained on it (≥5 sec), or until a maximum of 60 seconds. […] In between trials (inter-trial interval ≥10 min), mice were housed in heated cages to avoid performance deficits due to exhaustion or hypothermia. The latency and swimming speed to reach the escape platform were recorded for comparison. After the learning phase, memory retention was evaluated by one probe trial 24 hours after the last training session. The escape platform was removed before mice were released from the north entry point into the pool. Their swimming was video-tracked for 60 seconds. The area at the location of the removed hidden platform was defined as the target and the south-west quadrant the target quadrant. The percentage of time mice spent in the target quadrant (including the target) were measured for comparison.
For the NOR test, mice were habituated for 10 min per mouse in an equally illuminated, odor-free, white, plastic box (40×40×50 cm^3) embedded with fresh aspen shavings and shreds. In between each mouse trial the box was wiped with ethanol to avoid odor-induced stress. 24 hours after habituation, two identical objects ware placed at equal distance to each other and the corners of the box. Each mouse was placed into the center, and allowed to move freely for 10 min. Mice were video recorded during this familiarizing phase. […]

[2] = test system: hippocampal CA3-CA1 pathway of 5×FAD+/− mice; assay: Long-term potentiation / fEPSP recording in hippocampal slices from treated 5×FAD+/− mice; format: in vivo, mouse; details: 3.2 mg/kg/day for one month started at 2-3 months of age (before AD symptoms), slices at 3-4 months; vs DMSO
Protocol: as §1, with “As reported (Oakley et al., 2006), there was an age-dependence of AD progression in the 5×FAD^+/− mice. No sex-dependent differences in AD progression in these mice was observed.” left out
Schaffer collateral fibers were stimulated at the CA3 subfield to record field excitatory postsynaptic potentials (fEPSPs) in the CA1 stratum radiatum of transverse hippocampal slices ([…]) from all genotypes and drug-treated mice at different ages. After recovering at room temperature for 1 h (or 2 h for brain slices from drug-treated mice), hippocampal slices were allowed to recover in the recording chamber for additional 10 min. To evaluate basal synaptic transmission, different stimulation strengths (0 μA to 200 μA in steps of 20 μA) were applied and plotted fEPSP slopes versus the current input to compare the slope of input/output (I/O) curves of fEPSP. In the experiments that followed, stimulus current was adjusted so that fEPSP stabilized at 40-50% of maximum. Baseline was recorded for at least […] until the differences among fEPSP slopes were within 10%. Long-term potentiation (LTP) was induced using a tetanic high-frequency stimulation (HFS; 4 trains of 100 pulses at 100 Hz, with 20-sec intervals). Synaptic responses were recorded for at least 60 min after tetanization and quantified as the slope of the evoked fEPSP as percentage of the baseline.

[3] = test system: ryanodine receptor (RyR2); details: cited from earlier work
oligomeric Aβ = details: chronic treatment, animal studies; cited from earlier work
AD = details: racemic mixture at a dose of 25 mg per day, pilot clinical trial; cited from earlier work
[4] = test system: 5×FAD+/− CA1 pyramidal neurons; assay: Whole-cell patch-clamp recording of action potential firing in 5×FAD+/− CA1 pyramidal neurons in brain slices; format: cell-based, mouse; details: 10 μM, 3-4 months old 5×FAD+/− CA1 pyramidal neurons
Protocol: Acute brain slices were prepared according to the published procedures with some modifications (Ting et al., 2014; Ting et al., 2018).
For whole-cell patch-clamp recordings, slices were transferred to a submerged recording chamber perfused with carbogenated external solutions at a flow rate of 4-6 mL/min at room temperature. Action potentials (APs) were measured in hippocampal CA1 pyramidal neurons in transverse hippocampal slices (260 μm) from all genotypes of 3-4 months old mice using whole-cell patch-clamp with an […] amplifier (Axon Instruments). […] Membrane potentials in 5-6 months old or older neurons were not measured as aged neurons are difficult to patch. AP firing was recorded in an external solution (NaCl, 124 mM; KCl, 2.5 mM; NaH2PO4, 1.25 mM; NaHCO3, 24 mM; HEPES, 5 mM; glucose, 12.5 mM; MgCl2, 2 mM; and CaCl2, 2 mM; pH 7.4 adjusted with NaOH) and soft-glass recording pipettes (Sutter Instruments; Novato CA) filled with an internal solution (potassium gluconate, 135 mM, KCl, 10 mM, HEPES, 10 mM, CaCl2, 1 mM, MgCl2, 1 mM, EGTA, 10 mM, ATP, 1 mM, GTP, 0.1 mM, and pH 7.3 adjusted with KOH). […] For spontaneous AP recording, cells were hold at −70 mV and recorded for 3 min. […] For testing the Kv4 channel agonist NS5806, APs were measured before and 15 min after perfusion of 10 μM NS5806 in the external solution. […]

For `Cn1c(=O)c2c(ncn2C)n(C)c1=O` [Caffeine], the Kv4.2-mediated current [1] was “decreased”, the “decay time (inactivation time constant Tau) of Kv4.2-mediated current” value [1] was “decreased” and the “voltage-dependent activation of Kv4.2-mediated current” value [1] was “without altering”. The “voltage-dependent inactivation of Kv4.2-mediated current” value [1] was “without altering”.

In the case of `COc1ccccc1OCCNCC(O)COc1cccc2[nH]c3ccccc3c12` (racemic) [Racemic carvedilol, carvedilol], the “memory loss / learning and memory deficits (MWM, NOR)” value (5×FAD+/− mice) is given as “did not prevent”, the LTP impairment [2] is given as “did not prevent” and the “store-overload-induced Ca2+ release” value [3] is given as “reduces”. For the same compound, the “content of oligomeric Aβ in the brain” value (oligomeric Aβ) was “significantly reduced” and the “improvement in AD” value (AD) was “no significant improvement”.

For `O=C(Nc1cc(C(F)(F)F)cc(C(F)(F)F)c1)Nc1c(Br)cc(Br)cc1-c1nn[nH]n1` [NS5806], the “threshold current for inducing AP firing” value ([4]; before vs 15 min after perfusion) was “dramatically increased” and the “frequency of AP firing” value ([4]; current injection-triggered) was “decreased”.
